Laboratory results taken from PMC4491418, “Characterisation of Dermanyssus gallinae glutathione S-transferases and their potential as acaricide detoxification proteins” (Parasites & Vectors, 2015).

Columns and labels:
Format in all cases: biochemical
rDeg-GST-2 [1] = molecular target: T1, rDeg-GST-2 (Dermanyssus gallinae, UniProt A0A0H4FKJ9); test: GSH-CDNB conjugation, A340nm; conditions: 0-1 mM CDNB, 2 mM GSH, pH 6.5
T1 construct: full-length CDS (633 bp ORF, 210 aa) in pETSUMO; N-terminal His-tag and SUMO fusion kept; E. coli BL21-CodonPlus(DE3)-RIL; HisTrap purified
T1 sequence (A0A0H4FKJ9 1-210): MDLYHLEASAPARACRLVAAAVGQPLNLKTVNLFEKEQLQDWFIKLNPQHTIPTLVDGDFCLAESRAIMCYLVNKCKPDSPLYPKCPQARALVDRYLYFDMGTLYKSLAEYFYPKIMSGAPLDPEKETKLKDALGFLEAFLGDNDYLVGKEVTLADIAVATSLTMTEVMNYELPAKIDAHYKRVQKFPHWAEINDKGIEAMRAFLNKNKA

rDeg-GST-1 [2] = molecular target: T2, rDeg-GST-1 (Dermanyssus gallinae, UniProt A0A0H4FNI7); test: GSH-CDNB conjugation, A340nm; conditions: 0-1 mM CDNB, 2 mM GSH, pH 6.5
T2 construct: full-length CDS (735 bp ORF, 244 aa) in pETSUMO; N-terminal His-tag and SUMO fusion kept; E. coli BL21-CodonPlus(DE3)-RIL; HisTrap purified
T2 sequence (A0A0H4FNI7 1-244): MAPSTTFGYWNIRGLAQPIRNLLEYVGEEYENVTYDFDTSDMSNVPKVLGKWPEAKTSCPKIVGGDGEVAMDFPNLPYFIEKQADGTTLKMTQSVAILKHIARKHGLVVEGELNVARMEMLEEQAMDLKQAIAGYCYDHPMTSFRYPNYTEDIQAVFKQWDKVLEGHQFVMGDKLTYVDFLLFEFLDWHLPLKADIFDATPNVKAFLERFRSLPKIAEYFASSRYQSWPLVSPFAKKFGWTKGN

rDeg-GST-3 [3] = molecular target: T3, rDeg-GST-3 (Dermanyssus gallinae, UniProt A0A0H4FPP8); test: GSH-CDNB conjugation, A340nm; conditions: 0-1 mM CDNB, 2 mM GSH, pH 6.5
T3 construct: full-length CDS (669 bp ORF, 222 aa) in pETSUMO; N-terminal His-tag and SUMO fusion kept; E. coli BL21-CodonPlus(DE3)-RIL; HisTrap purified
T3 sequence (A0A0H4FPP8 1-222): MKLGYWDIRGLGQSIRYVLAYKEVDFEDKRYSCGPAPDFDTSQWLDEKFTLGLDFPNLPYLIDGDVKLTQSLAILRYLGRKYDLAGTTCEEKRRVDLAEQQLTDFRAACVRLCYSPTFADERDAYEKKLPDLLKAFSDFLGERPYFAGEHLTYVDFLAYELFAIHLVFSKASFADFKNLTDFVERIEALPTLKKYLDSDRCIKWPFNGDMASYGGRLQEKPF

rDeg-GST-1 [4] = molecular target: T2, rDeg-GST-1; test: inhibition of GSH-CDNB conjugation, A340nm; conditions: 100 µM; 1 mM CDNB, 2 mM GSH, pH 6.5 substrate buffer; 10 min preincubation at RT; mode not determined
From the text: inhibition of GSH-CDNB conjugation, A340nm on rDeg-GST-1

rDeg-GST-2 [5] = molecular target: T1, rDeg-GST-2; test: inhibition of GSH-CDNB conjugation, A340nm; conditions: 100 µM; 1 mM CDNB, 2 mM GSH, pH 6.5 substrate buffer; 10 min preincubation at RT; mode not determined
From the text: inhibition of GSH-CDNB conjugation, A340nm on rDeg-GST-2

rDeg-GST-3 [6] = molecular target: T3, rDeg-GST-3; test: inhibition of GSH-CDNB conjugation, A340nm; conditions: 100 µM; 1 mM CDNB, 2 mM GSH, pH 6.5 substrate buffer; 10 min preincubation at RT; mode not determined
From the text: inhibition of GSH-CDNB conjugation, A340nm on rDeg-GST-3

| Compound | GSH-CDNB conjugation, A340nm (rDeg-GST-2 [1]) | GSH-CDNB conjugation, A340nm (rDeg-GST-1 [2]) | GSH-CDNB conjugation, A340nm (rDeg-GST-3 [3]) | % reduction in Deg-GST activity ± SEM / rDeg-GST-1 (0.3 μg GST/well) (rDeg-GST-1 [4]) [%] | % reduction in Deg-GST activity ± SEM / rDeg-GST-2 (1.5 μg GST/well) (rDeg-GST-2 [5]) [%] | % reduction in Deg-GST activity ± SEM / rDeg-GST-3 (1.5 μg GST/well) (rDeg-GST-3 [6]) [%] |
| --- | --- | --- | --- | --- | --- | --- |
| O=[N+]([O-])c1ccc(Cl)c([N+](=O)[O-])c1 [1-chloro-2,4-dinitrobenzene] | All three rDeg-GSTs were enzymically-active molecules capable of catalyzing the conjugation of GSH to CDNB | All three rDeg-GSTs were enzymically-active molecules capable of catalyzing the conjugation of GSH to CDNB | All three rDeg-GSTs were enzymically-active molecules capable of catalyzing the conjugation of GSH to CDNB |  |  |  |
| CC1(C)C(C=C(Cl)Cl)C1C(=O)OCc1cccc(Oc2ccccc2)c1 (stereo not shown) [Permethrin] |  |  |  | 35.39 ± 0.9 |  |  |
| CCOP(=S)(OCC)ON=C(C#N)c1ccccc1 [Phoxim] |  |  |  | 56.38 ± 3.0 | 14.8 ± 1.5 | 20.56 ± 2.5 |
